Assay results as given in US11590116B2 (THERAVANCE BIOPHARMA R&D IP, LLC, priority 2019, dated 2023).

Assays:
[1] = tested on: TGF-β-stimulated SMAD3 phosphorylation in BEAS-2B cells; assay: Cellular ALK5 potency assay, inhibition of TGF-β stimulated pSMAD3 formation in BEAS-2B cells; type: cell-based; settings: Homo sapiens; inhibition of TGF-β stimulated pSMAD3 formation, BEAS-2B cells; read-out: BEAS2B pIC50 (converted)
How it was run: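 AlphaLISA pSMAD3 read-out, beads incubated overnight. Human BEAS-2B cells: 1 h compound preincubation (37 °C, 5% CO2), then 30 min TGF-β at 10 ng/mL final, immediate lysis. Values are pIC50 relative to stimulated, compound-free baseline.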

[2] = biological target: T1, recombinant human ALK5 (TGF-βR1) protein (Homo sapiens, UniProt P36897); assay: Biochemical ALK5 (TGF-βR1) assay to measure pKi (LANCE Ultra ULight kinase assay); settings: apparent pKi from pIC50 by Cheng-Prusoff, read-out: ALK5 pKi (converted)
T1 construct: purchased Life Technologies PR9075A
T1 sequence (P36897 34-503): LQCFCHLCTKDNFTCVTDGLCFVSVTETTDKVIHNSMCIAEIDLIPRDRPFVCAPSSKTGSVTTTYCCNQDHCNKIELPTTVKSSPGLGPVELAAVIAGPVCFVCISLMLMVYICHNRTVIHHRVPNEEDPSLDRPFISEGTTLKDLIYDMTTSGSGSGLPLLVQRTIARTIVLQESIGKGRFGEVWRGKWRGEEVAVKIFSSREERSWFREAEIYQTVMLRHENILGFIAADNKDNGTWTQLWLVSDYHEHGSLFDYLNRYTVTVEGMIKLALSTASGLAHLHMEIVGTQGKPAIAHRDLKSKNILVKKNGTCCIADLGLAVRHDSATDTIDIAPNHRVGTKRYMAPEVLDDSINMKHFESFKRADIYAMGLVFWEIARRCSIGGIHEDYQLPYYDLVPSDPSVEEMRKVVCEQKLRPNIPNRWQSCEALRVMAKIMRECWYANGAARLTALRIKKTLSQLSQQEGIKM
How it was run: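 Compounds (10 μM to 25 pM) were preincubated 60 min at room temperature with enzyme, then reactions were started with ATP (125 μM stock, 5× final) and run 60 min at 37 °C. EDTA-containing Eu-anti-phospho-Topo IIα (Thr1342) antibody stopped the reaction; TR-FRET read at 665 nm. pIC50 from 4-parameter fit, converted to pKi via Cheng-Prusoff.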

| Structure (SMILES) | Ki [2] | IC50 [1] |
| --- | --- | --- |
| CNCCn1ccc(-c2cnc3ccc(-c4c[nH]nc4-c4cccc(C)n4)nc3c2)n1 [Compound 229, N-methyl-2-[3-[6-[3-(6-methyl-2-pyridyl)-1H-pyrazol-4-yl]-1,5-naphthyridin-3-yl]pyrazol-1-yl]ethanamine] | < 0.0316 nM | 25.1 to 158 nM |
| Cc1cccc(-c2[nH]cnc2-c2ccc3ncc(C4=CCN(Cc5ccccc5)C4)cc3c2)n1 [Compound 232, 3-(1-benzyl-2,5-dihydropyrrol-3-yl)-6-[5-(6-methyl-2-pyridyl)-1H-imidazol-4-yl]quinoline] | < 0.0316 nM | 25.1 to 158 nM |
| Cc1cccc(-c2n[nH]cc2-c2ccc3ncc(-c4ccc(=O)n(C)c4)cc3n2)n1 [Compound 345, 1-methyl-5-[6-[3-(6-methyl-2-pyridyl)-1H-pyrazol-4-yl]-1,5-naphthyridin-3-yl]pyridin-2-one] | < 0.0316 nM | < 20 nM |
| Cc1cccc(-c2[nH]cnc2-c2ccc3ncc(NCCN4CCN(C(C)C)CC4)cc3n2)n1 [Compound 104, N-(2-(4-isopropylpiperazin-1-yl)ethyl)-6-(5-(6-methylpyridin-2-yl)-1H-imidazol-4-yl)-1,5-naphthyridin-3-amine] | 0.0398 to 0.316 nM | 25.1 to 158 nM |
| Cc1nc(-c2n[nH]cc2-c2ccc3ncc(-c4ccc5c(n4)CCNC5)cc3n2)ccc1F [Compound 34, 2-[3-(5-fluoro-6-methyl-2-pyridyl)-1H-pyrazol-4-yl]-7-(5,6,7,8-tetrahydro-1,6-naphthyridin-2-yl)-1,5-naphthyridine] | < 0.0316 nM | 25.1 to 158 nM |
| Cc1cccc(-c2n[nH]cc2-c2ccc3ncc(Br)cc3n2)n1 [Compound 323, 7-bromo-2-[3-(6-methyl-2-pyridyl)-1H-pyrazol-4-yl]-1,5-naphthyridine] | 0.0398 to 0.316 nM | < 20 nM |
| Cc1nc(-c2n[nH]cc2-c2ccc3ncc(N4CCC(N5CCN(C)CC5)CC4)cc3c2)ccc1F [Compound 93, 6-[3-(5-fluoro-6-methyl-2-pyridyl)-1H-pyrazol-4-yl]-3-[4-(4-methylpiperazin-1-yl)-1-piperidyl]quinoline] | < 0.0316 nM | 25.1 to 158 nM |
| COC(=O)c1cccc(-c2cnc3ccc(-c4c[nH]nc4-c4cccc(C)n4)nc3c2)c1 [Compound 369, methyl 3-[6-[3-(6-methyl-2-pyridyl)-1H-pyrazol-4-yl]-1,5-naphthyridin-3-yl]benzoate] | < 0.0316 nM | < 20 nM |
| Cc1cccc(-c2n[nH]cc2-c2ccc3ncc(N[C@@]45C[C@@H]6C[C@@H](C[C@@](N)(C6)C4)C5)cc3n2)n1 [Compound 297, rac-(5S,7R)-N1-[6-[3-(6-methyl-2-pyridyl)-1H-pyrazol-4-yl]-1,5-naphthyridin-3-yl]adamantane-1,3-diamine] | 3.98 to 31.6 nM | 200 to 1260 nM |
| Cc1cccc(-c2[nH]ncc2-c2ccc3ncc(C(=O)OCC4CCNCC4)cc3n2)n1 [Compound 211, 4-piperidylmethyl 6-[5-(6-methyl-2-pyridyl)-1H-pyrazol-4-yl]-1,5-naphthyridine-3-carboxylate] | 0.0398 to 0.316 nM | 25.1 to 158 nM |
| Cc1cccc(-c2n[nH]cc2-c2ccc3ncc(N4CCC5(CCNC5)C4)cc3n2)n1 (stereo not shown) [Compound 10, 7-(2,7-diazaspiro[4.4]nonan-2-yl)-2-[3-(6-methyl-2-pyridyl)-1H-pyrazol-4-yl]-1,5-naphthyridine] | 0.0398 to 0.316 nM | 200 to 1260 nM |
| Cc1cccc(-c2n[nH]cc2-c2ccc3ncc(NC(=O)CCCN4CCOCC4)cc3n2)n1 [Compound 358, N-[6-[3-(6-methyl-2-pyridyl)-1H-pyrazol-4-yl]-1,5-naphthyridin-3-yl]-4-morpholino-butanamide] | 0.0398 to 0.316 nM | 25.1 to 158 nM |
| Cc1cccc(-c2n[nH]cc2-c2ccc3ncc(CNCCCN4CCN(C(C)C)CC4)cc3n2)n1 [Compound 218, 3-(4-isopropylpiperazin-1-yl)-N-[[6-[3-(6-methyl-2-pyridyl)-1H-pyrazol-4-yl]-1,5-naphthyridin-3-yl]methyl]propan-1-amine] | 0.398 to 3.16 nM | 200 to 1260 nM |

More lines, main results first:

| Ki [2] | Structure (SMILES) | IC50 [1] |
| --- | --- | --- |
| 0.0398 to 0.316 nM | Cc1cccc(-c2[nH]cnc2-c2ccc3ncc(-c4nc(C5=CCNC5)cs4)cc3c2)n1 [Compound 1043, 4-(2,5-dihydro-1H-pyrrol-3-yl)-2-[6-[5-(6-methyl-2-pyridyl)-1H-imidazol-4-yl]-3-quinolyl]thiazole] | < 20 nM |
| 0.0398 to 0.316 nM | Cc1cccc(-c2n[nH]cc2-c2ccc3ncc(-c4c[nH]nc4C(F)(F)F)cc3n2)n1 [Compound 484, 2-[3-(6-methyl-2-pyridyl)-1H-pyrazol-4-yl]-7-[3-(trifluoromethyl)-1H-pyrazol-4-yl]-1,5-naphthyridine] | < 20 nM |
| 0.398 to 3.16 nM | COc1nc(-c2ccc3ncc(Br)cc3c2)c(-c2cccc(C)n2)[nH]1 [Compound 1202, 3-bromo-6-[2-methoxy-5-(6-methyl-2-pyridyl)-1H-imidazol-4-yl]quinoline] | 25.1 to 158 nM |
| 0.0398 to 0.316 nM | Cc1cccc(-c2[nH]cnc2-c2ccc3ncc(-c4csc(C(=O)OCCNC5CNC5)c4)cc3c2)n1 [Compound 1235, 2-(azetidin-3-ylamino)ethyl 4-[6-[5-(6-methyl-2-pyridyl)-1H-imidazol-4-yl]-3-quinolyl]thiophene-2-carboxylate] | 25.1 to 158 nM |
| 0.0398 to 0.316 nM | Cc1cccc(-c2[nH]cnc2-c2ccc3ncc(-c4ncc(C(=O)OC5CNC5)cn4)cc3c2)n1 [Compound 1063, azetidin-3-yl 2-[6-[5-(6-methyl-2-pyridyl)-1H-imidazol-4-yl]-3-quinolyl]pyrimidine-5-carboxylate] | 25.1 to 158 nM |
| 0.0398 to 0.316 nM | Cc1cccc(-c2[nH]ncc2-c2ccc3ncc(C(=O)OCCN4CCN(C(C)C)CC4)cc3n2)n1 [Compound 389, 2-(4-isopropylpiperazin-1-yl)ethyl 6-[5-(6-methyl-2-pyridyl)-1H-pyrazol-4-yl]-1,5-naphthyridine-3-carboxylate] | 25.1 to 158 nM |
| 0.398 to 3.16 nM | CNc1cnc2ccc(-c3c(-c4cccc(C)n4)n[nH]c3OC)nc2c1 [Compound 507, 6-[5-methoxy-3-(6-methyl-2-pyridyl)-1H-pyrazol-4-yl]-N-methyl-1,5-naphthyridin-3-amine] | 200 to 1260 nM |
| 0.398 to 3.16 nM | CCOc1nc(-c2ccc3ncc(Br)cc3c2)c(-c2cccc(C)n2)[nH]1 [Compound 1185, 3-bromo-6-[2-ethoxy-5-(6-methyl-2-pyridyl)-1H-imidazol-4-yl]quinoline] | 25.1 to 158 nM |
| < 0.0316 nM | Cc1cccc(-c2nc3ccccn3c2-c2ccc3ncc(-c4cn[nH]c4)cc3c2)n1 [Compound 592, 6-[2-(6-methyl-2-pyridyl)imidazo[1,2-a]pyridin-3-yl]-3-(1H-pyrazol-4-yl)quinoline] | < 20 nM |
| 0.0398 to 0.316 nM | Cc1cccc(-c2[nH]cnc2-c2ccc3ncc(-c4ccc5c(c4)CNCC5)cc3c2)n1 [Compound 609, 6-[5-(6-methyl-2-pyridyl)-1H-imidazol-4-yl]-3-(1,2,3,4-tetrahydroisoquinolin-7-yl)quinoline] | < 20 nM |
| 0.0398 to 0.316 nM | Cc1cccc(-c2[nH]cnc2-c2ccc3ncc(-c4ccnc(C(=O)OCCN5CCNCC5)c4)cc3c2)n1 [Compound 1099, 2-piperazin-1-ylethyl 4-[6-[5-(6-methyl-2-pyridyl)-1H-imidazol-4-yl]-3-quinolyl]pyridine-2-carboxylate] | 200 to 1260 nM |
| 0.0398 to 0.316 nM | Cc1cccc(-c2[nH]cnc2-c2ccc3ncc(C(=O)OCCN4CCNCC4)cc3c2)n1 [Compound 756, 2-(piperazin-1-yl)ethyl 6-(5-(6-methylpyridin-2-yl)-1H-imidazol-4-yl)quinoline-3-carboxylate] | 25.1 to 158 nM |
| 0.0398 to 0.316 nM | Cc1cccc(-c2[nH]cnc2-c2ccc3ncc(C(=O)OC[C@H]4CC[C@H](N)CC4)cc3c2)n1 [Compound 765, (4-aminocyclohexyl)methyl 6-[5-(6-methyl-2-pyridyl)-1H-imidazol-4-yl]quinoline-3-carboxylate] | 25.1 to 158 nM |
| 0.0398 to 0.316 nM | Cc1cccc(-c2[nH]ncc2-c2ccc3ncc(C(=O)OC[C@H]4CCCNC4)cc3c2)n1 [Compound 1230, [(3S)-3-piperidyl]methyl 6-[5-(6-methyl-2-pyridyl)-1H-pyrazol-4-yl]quinoline-3-carboxylate] | 25.1 to 158 nM |
| 0.0398 to 0.316 nM | Cc1cccc(-c2n[nH]cc2-c2ccc3ncc(NC4CCCNC4)cc3n2)n1 (stereo not shown) [Compound 543, 6-[3-(6-methyl-2-pyridyl)-1H-pyrazol-4-yl]-N-(3-piperidyl)-1,5-naphthyridin-3-amine] | 25.1 to 158 nM |
| 0.0398 to 0.316 nM | Cc1cccc(-c2[nH]cnc2-c2ccc3ncc(-c4ncc(C(=O)O[C@@H]5CCNC5)cn4)cc3c2)n1 [Compound 1079, [(3R)-pyrrolidin-3-yl] 2-[6-[5-(6-methyl-2-pyridyl)-1H-imidazol-4-yl]-3-quinolyl]pyrimidine-5-carboxylate] | 25.1 to 158 nM |
